Assay results: US20240424112A1, “TETRAHYDROISOQUINOLINE COMPOUNDS THAT ARE KEAP1 BINDERS” (C4X Discovery Limited, priority 2021, published 2024)

Key:
BRD4 short isoform = biological target: T1, BRD4 short isoform (Homo sapiens, UniProt O60885); experiment: BRD4 degradation assay (Western blot, MDA-MB-468 cells), short isoform; type: cell-based; details: MDA-MB-468, n = 2
T1 construct: endogenous in cells; host or cells: MDA-MB-468
Procedure: (§1) BRD4 Degradation Assay Protocol Summary
(§2) MDA-MB-468 cells were cultured routinely in DMEM supplemented with 10% heat inactivated FBS and 1% Penicillin-Streptomycin (Thermofisher Scientific) at 37° C. 5% CO2. Cells were seeded in 6-well plates at 4*10^5 cells per well and left to adhere overnight. Example compounds were solubilised in DMSO to make 10 mM stocks followed by serial dilutions in DMSO to 200× final concentration. These were further diluted in culture media to give 20× treatment stocks before addition to cells to a 1× final concentration. Cells were then incubated at 37° C. 5% CO2 for 24 or 48 hours after which cells were lysed in RIPA buffer supplemented with cOmplete Mini Protease Inhibitor Cocktail and PhosSTOP™ (Roche). Lysates were clarified by centrifugation at 13,000 RPM for 10 minutes and the protein concentration of the resulting supernatants determined by BCA assay (ThermoFisher Scientific) as per manufacturer's instructions. Lysates were denatured and reduced in NuPAGE LDS sample buffer and sample reducing agent before 10 μg was loaded onto NuPAGE […] Tris-Acetate Mini Protein Gels (ThermoFisher Scientific). Protein was transferred to nitrocellulose membranes using a Trans-Blot Turbo Transfer System (Bio-Rad) before blocking for 1 hour in Intercept (TBS) Blocking Buffer (Li-Cor). Membranes were then incubated overnight with BRD4 (ab128874; Abcam) and α-tubulin (T6074; Sigma-Aldrich) antibodies diluted 1:2000 and 1:16,000 respectively in Tris-buffered saline 0.05% Tween 20 (TBS-T). The following day, membranes were washed with TBS-T before addition of anti-rabbit IRDye 800 CW and anti-mouse IRDye 680LT secondary antibodies (LiCor) (diluted 1:10,000 in TBS-T) for one hour. Membranes were then washed with TBS-T before imaging using a LICOR Odyssey Infrared Imaging System with Image Studio Ver 5.2 software (LiCor). Densitometry analysis was carried out in the LiCor image studio software where BRD4 signal was normalised to α-tubulin signal. Percentage degradation of BRD4 relative to the DMSO treated negative control was calculated as: =100−(signal of interest/signal of control sample*100). BRD4 degradation by dBET1 was used as positive control for each plate. Data obtained for the percentage degradation of BRD4 upon treatment with the Example compounds 1-6 and Comparative Example compounds 1-3 at 24 hour incubation are shown in Table 2 and with 48 hour incubation are shown in Table 3.

BRD4 long isoform = biological target: T2, BRD4 long isoform (Homo sapiens, UniProt O60885); experiment: BRD4 degradation assay (Western blot, MDA-MB-468 cells), long isoform; type: cell-based; details: MDA-MB-468, n = 2
T2 construct: endogenous in cells; host or cells: MDA-MB-468
Procedure: as §1, §2

[1] = tested on: NRF2 mediated gene NAD(P)H:quinone acceptor oxidoreductase 1 (NQO1) mRNA in BEAS-2B cells; experiment: Beas2B NQO1 mRNA cell based assay; details: Homo sapiens, 24 h, vs vehicle (0.1% DMSO), read-out: EC50 (increase in NQO1 mRNA)
Procedure: Beas2B NQO1 mRNA Cell Based Assay
The up-regulation of the NRF2 mediated gene NAD(P)H:quinone acceptor oxidoreductase 1 (NQO1) was measured using the following assay method: BEAS-2B cells (ATCC CRL-9609) were plated in 96-well clear plates at 20,000 cells/well in 75 μL of cell culture media and incubated overnight (37° C., 5% CO2). On day 2, 25 μL of compound or controls were added to the cells for 24 h. On day 3, the medium was aspirated from the plate and the Cells-to-CT™ 1-Step TaqMan® Kit (Ambion A25603) was used to perform expression analysis directly from cultured cells without RNA purification according to the manufacturer's instructions.
Briefly, cells were washed with ice cold PBS and 22.5 μL of room-temperature DNase/Lysis solution was added to the cells and incubated at room temperature for 5 minutes. To stop the reaction, 2.25 μL of stop solution was added to the cell lysate. The samples were diluted 1:5 using nuclease free water and 2.5 μL transferred into the PCR plate. Real-time PCR was performed using the C-1000 Thermal Cycler (Bio-Rad) using human beta actin as the internal control. The cDNA was amplified with a specific primer for NQO1 using the 1-step RT-PCR master mix (Ambion Cells-to-CT™ 1-Step TaqMan® Kit A25603). The primers/probes sets that were used for amplification of cDNA were obtained from TaqMan Gene Expression Assays (Applied Biosystems). The comparative CT (ΔΔCT) relative quantification method was used to calculate the relative mRNA level of the target gene NQO1 as described in the Applied Biosystems Chemistry Guide. The data are expressed as an increase in target gene mRNA compared to vehicle (0.1% DMSO) control and the EC50 values were determined by fitting the data to a four parameter logistic fit using XLfit or XE Runner within ActivityBase.

| SMILES | % Mean Degradation of BRD4 (BRD4 short isoform; 24 h, 0.1 μM) [%] | % Mean Degradation of BRD4 (BRD4 short isoform; 24 h, 1 μM) [%] | % Mean Degradation of BRD4 (BRD4 short isoform; 24 h, 5 μM) [%] | % Mean Degradation of BRD4 (BRD4 short isoform; 48 h, 0.1 μM) [%] | % Mean Degradation of BRD4 (BRD4 short isoform; 48 h, 1 μM) [%] | % Mean Degradation of BRD4 (BRD4 short isoform; 48 h, 5 μM) [%] | % Mean Degradation of BRD4 (BRD4 long isoform; 24 h, 0.1 μM) [%] | % Mean Degradation of BRD4 (BRD4 long isoform; 24 h, 1 μM) [%] | % Mean Degradation of BRD4 (BRD4 long isoform; 24 h, 5 μM) [%] | % Mean Degradation of BRD4 (BRD4 long isoform; 48 h, 0.1 μM) [%] | % Mean Degradation of BRD4 (BRD4 long isoform; 48 h, 1 μM) [%] | % Mean Degradation of BRD4 (BRD4 long isoform; 48 h, 5 μM) [%] | EC50 [1] [nM] |
| --- | --- | --- | --- | --- | --- | --- | --- | --- | --- | --- | --- | --- | --- |
| Cc1sc2c(c1C)C(c1ccc(Cl)cc1)=N[C@@H](CC(=O)NCC(=O)NCCNC(=O)[C@@]1(C)CCCC[C@H]1C(=O)N1CCc3c(Cl)ccc(OCc4nnn(C)c4C)c3[C@H]1CN1CC3(CC3)CC1=O)c1nnc(C)n1-2 [Comparative Example 1, (1S,2R)-2-((S)-5-Chloro-8-((1,5-dimethyl-1H-1,2,3-triazol-4-yl)methoxy)-1-((6-oxo-5-azaspiro[2.4]heptan-5-yl)methyl)-1,2,3,4-tetrahydroisoquinoline-2-carbonyl)-N-(2-(2-(2-((S)-4-(4-chlorophenyl)-2,3,9-trimethyl-6H-thieno[3,2-f][1,2,4]triazolo[4,3-a][1,4]diazepin-6-yl)acetamido)acetamido)ethyl)-1-methylcyclohexane-1-carboxamide, reference compound] | 18 | 42 | 43 | −11 | 24 | 28 | 11 | 18 | 5 | −39 | −27 | −47 | 212 |
| Cc1sc2c(c1C)C(c1ccc(Cl)cc1)=N[C@@H](CC(=O)NCC(=O)NCCOCC(=O)N1CC[C@H](Oc3ccc(Cl)c4c3[C@@H](CN3CC5(CC5)CC3=O)N(C(=O)[C@@H]3CCCC[C@]3(C)C(=O)O)CC4)C1)c1nnc(C)n1-2 [Example 6, (1S,2R)-2-((S)-5-Chloro-8-(((S)-1-(2-(2-(2-(2-((S)-4-(4-chlorophenyl)-2,3,9-trimethyl-6H-thieno[3,2-f][1,2,4]triazolo[4,3-a][1,4]diazepin-6-yl)acetamido)acetamido)ethoxy)acetyl)pyrrolidin-3-yl)oxy)-1-((6-oxo-5-azaspiro[2.4]heptan-5-yl)methyl)-1,2,3,4-tetrahydroisoquinoline-2-carbonyl)-1-methylcyclohexane-1-carboxylic acid] | 21 | 60 | 95 | 1 | 44 | 81 | 9 | 52 | 95 | −27 | 43 | 82 | 2490 |
| Cc1sc2c(c1C)C(c1ccc(Cl)cc1)=N[C@@H](CC(=O)NCC(=O)NCCOCc1c(COc3ccc(Cl)c4c3[C@@H](CN3CC5(CC5)CC3=O)N(C(=O)[C@@H]3CCCC[C@]3(C)C(=O)O)CC4)nnn1C)c1nnc(C)n1-2 [Example 3, (1S,2R)-2-((S)-5-Chloro-8-((5-((2-(2-(2-((S)-4-(4-chlorophenyl)-2,3,9-trimethyl-6H-thieno[3,2-f][1,2,4]triazolo[4,3-a][1,4]diazepin-6-yl)acetamido)acetamido)ethoxy)methyl)-1-methyl-1H-1,2,3-triazol-4-yl)methoxy)-1-((6-oxo-5-azaspiro[2.4]heptan-5-yl)methyl)-1,2,3,4-tetrahydroisoquinoline-2-carbonyl)-1-methylcyclohexane-1-carboxylic acid] | 31 | 87 | 87 | 25 | 77 | 79 | 23 | 80 | 75 | 14 | 67 | 60 | 280 |
| Cc1sc2c(c1C)C(c1ccc(Cl)cc1)=N[C@@H](CC(=O)NCCC(=O)NCCOCc1c(COc3ccc(Cl)c4c3[C@@H](CN3CC5(CC5)CC3=O)N(C(=O)[C@@H]3CCCC[C@]3(C)C(=O)O)CC4)nnn1C)c1nnc(C)n1-2 [Example 4, (1S,2R)-2-((S)-5-Chloro-8-((5-((2-(3-(2-((S)-4-(4-chlorophenyl)-2,3,9-trimethyl-6H-thieno[3,2-f][1,2,4]triazolo[4,3-a][1,4]diazepin-6-yl)acetamido)propanamido)ethoxy)methyl)-1-methyl-1H-1,2,3-triazol-4-yl)methoxy)-1-((6-oxo-5-azaspiro[2.4]heptan-5-yl)methyl)-1,2,3,4-tetrahydroisoguinoline-2-carbonyl)-1-methylcyclohexane-1-carboxylic acid] | 18 | 65 | 75 | −2 | 65 | 77 | −37 | 26 | 43 | −19 | 56 | 71 | 660 |
| Cc1sc2c(c1C)C(c1ccc(Cl)cc1)=N[C@@H](CC(=O)NCCOCCOCCNC(=O)[C@@]1(C)CCCC[C@H]1C(=O)N1CCc3c(Cl)ccc(OCc4nnn(C)c4C)c3[C@H]1CN1CC3(CC3)CC1=O)c1nnc(C)n1-2 [Comparative Example 3, (1S,2R)-2-((S)-5-Chloro-8-((1,5-dimethyl-1H-1,2,3-triazol-4-yl)methoxy)-1-((6-oxo-5-azaspiro[2.4]heptan-5-yl)methyl)-1,2,3,4-tetrahydroisoguinoline-2-carbonyl)-N-(2-(2-(2-(2-((S)-4-(4-chlorophenyl)-2,3,9-trimethyl-6H-thieno[3,2-f][1,2,4]triazolo[4,3-a][1,4]diazepin-6-yl)acetamido)ethoxy)ethoxy)ethyl)-1-methylcyclohexane-1-carboxamide, reference compound] | 5 | 31 | 18 | 23 | 32 | −4 | 34 | 45 | 49 | 13 | 30 | 20 | 68 |
| CNC(=O)[C@@]1(C)CCCC[C@H]1C(=O)N1CCc2c(Cl)ccc(OCc3nnn(CCNC(=O)CNC(=O)C[C@@H]4N=C(c5ccc(Cl)cc5)c5c(sc(C)c5C)-n5c(C)nnc54)c3C)c2[C@H]1CN1CC2(CC2)CC1=O [Example 2] | 84 | 95 | 97 | 71 | 92 | 93 | 77 | 93 | 91 | 78 | 93 | 94 | 458 |
